Results on four compounds are retold here after patent US6599536B1, “Therapy of estrogen-associated disorders” (Novogen Research Pty Ltd, priority 1998, dated 2003).

In data set [1] the test system is cancer. The conditions noted are these: cited from earlier work.
Data set [2] in a line: Plasma and urinary profiles of isoflavones after acute and chronic administration of isoflavone tablets (Promensil composition), HPLC. The protocol:
The plasma and urinary profiles of isoflavones after acute and chronic administration of […] of isoflavones (genistein […], daidzein 0.5 mg, biochanin […], and formononetin 14 mg) in fourteen subjects was analysed. The composition corresponds to the Promensil product (Registered Trade Mark, Novogen Research Pty Ltd, Australia). Venous plasma and urine were collected at intervals for 24 h after which subjects commenced taking two tablets each day for two weeks and repeated plasma samples and urine were collected for a 48 h period after the last does. Plasma and urine isoflavones were assayed by HPLC.

Data set [3] has as its system human estrogen receptor (hER). As to conditions: cited from earlier work.

As for `O=c1c(-c2ccc(O)cc2)coc2cc(O)ccc12` [daidzein], the anti-cancer actions result in data set [1] was “virtually none”. For the same compound, in data set [2] (in vivo), the “plasma concentrations relative to the methylated precursors” value is on record as “much higher concentrations than their methylated precursors”.

Regarding `COc1ccc(-c2coc3cc(O)cc(O)c3c2=O)cc1` [biochanin], in data set [3], the “binding affinity for the hER compared to daidzein” value is “lower binding affinity” and the “estrogenic potency relative to daidzein” value is on record as “about the same estrogenic potency as daidzein”. Also, the “detectability in plasma and urine” value in data set [2] (in vivo) was “remained detectable in both plasma and urine at all times”.

Take `O=c1c(-c2ccc(O)cc2)coc2cc(O)cc(O)c12` [genistein]: the anti-cancer actions entry in data set [1] was “potent anti-cancer actions”. In addition, in data set [3], the “estrogenic potency relative to daidzein” value is reported as “approximately ten fold more estrogenic than daidzein”. Moreover, the “plasma concentrations relative to the methylated precursors” value in data set [2] (after acute dosing of the isoflavone tablets) is on record as “much higher concentrations than their methylated precursors”.

Take `COc1ccc(-c2coc3cc(O)ccc3c2=O)cc1` [formononetin]: in data set [2] (in vivo), the “detectability in plasma and urine” value was “remained detectable in both plasma and urine at all times”.
